Data on one compound can be found in paper PMC11729425 (ACS Pharmacology & Translational Science, 2024).

The test system of assay [1] is Aged C57BL/6J mice. Briefly: Oral glucose tolerance test (oGTT) in aged mice. The following applies: 1 mg/kg in the food, week 17. The class given is in vivo, C57BL/6JRj mice. As to the method:
For OGTT, mice underwent an overnight fast, and on the morning of the experiment, they were administered a gavage consisting of a 20% glucose solution in water (10 mL [2 g]/kg body weight). Blood glucose levels were monitored from the tail vein using a glucometer prior to the gavage and at 15, 30, 45, 60, 90, 120, 150, and 180 min thereafter. Additionally, blood samples were collected at 0 min (pregavage), 15 and 30 min to assess fasting insulin levels and glucose-stimulated insulin secretion. oGTT was performed 17 weeks post experiment onset as indicated in Figure 2A.

Assay [2] deals with Aged C57BL/6J mice. Put plainly: Uphill running. The class given is in vivo, C57BL/6JRj mice. The settings on record: 1 mg/kg in the food, week 13, trend for improvement. As to the method: Animals were placed on a treadmill at a speed of 15 cm/s in the beginning, then speed was increased by 3 cm/s every 12 min, with an incline of 5°. Mice were taken off the treadmill if they were considered exhausted (5 or more shocks (0.1 mA) per minute for two consecutive minutes) or if the maximum duration of the test was reached (3 h). The maximum running time before exhaustion was recorded and registered as maximum uphill running time.[34]

For assay [3], the system named is sphingolipids in gastrocnemius muscle and brain. Briefly: Sphingolipid and deoxysphingolipid analysis in gastrocnemius muscle and brain of aged mice (20 weeks). The class given is in vivo, C57BL/6JRj mice. The settings on record: 1 mg/kg in the food. As to the method:
Figure 4 1-deoxy-SL species accumulate in muscle and brain tissues during aging and contribute to cellular protein aggregation. (A,B) Heat map representing the abundance of sphingolipids in (A) gastrocnemius muscle and (B) brain with and without treatment with ALT-007 in mice (ALT-007 at 1 mg/kg; DMSO at equivalent volume for 20 weeks). N = 8 per group. Data are shown as log2 fold change. Adjusted P values are indicated as follows: *adjusted P < 0.05; **adjusted P < 0.01; ***adjusted P < 0.001. (C,D) Representative images and quantification of protein aggregates upon 1-deoxy-SA (C) and P053 treatment (D) in human primary IBM cells; both were administered at 4 μM for 24 h. N = 8 per group. (E) Analysis of 1-Deoxy-Spa and 1-DeoxyCer 24:1 levels in myoblasts from healthy and IBM patients. N = 3 per group. (C–E) Quantitative data are expressed as median with IQR and compared using the Mann–Whitney U test. All tests were 2 sided. *P < 0.05, **P < 0.01, ***P < 0.001.
Sphingolipid and deoxysphingolipid measurements were performed by liquid chromatography–tandem mass spectrometry (LC–MS/MS) analysis as described in previous studies.[12],[13],[28]−[30] […]
ESI source conditions were used as follows: dry gas temperature, 230 °C; nebulizer, 35 psi and flow rate of 14 L min^–1; sheath gas temperature, 400 °C and flow rate of 12 L min^–1; nozzle voltage, 500 V; and capillary voltage, 4000 V. Dynamic multiple reaction monitoring was used as the acquisition mode with a total cycle time of 500 ms. […] Raw LC–MS/MS data were processed applying Agilent Quantitative Analysis software (version B.07.00, MassHunter Agilent Technologies).
Absolute quantification was based on calibration curves and stable isotope-labeled internal standards to determine the response factor for each metabolite, with linearity assessed using 12-point range standard curves. […] Sphingolipid concentrations were reported and protein concentrations in protein pellets (measured by BCA, Thermo Fisher Scientific) were determined after metabolite extraction. […]

The next assay deals with GMC101 worms. Briefly: Paralysis scoring in amyloid beta expressing GMC101 worms. The settings on record: GMC101, 1 μM, day 1 of adulthood. It counts as in vivo, Caenorhabditis elegans. As to the method:
At least 100 worms per condition were manually scored for paralysis after poking. Results are representative of data obtained from at least two independent experiments. ALT-007 was administered at 1 μM and DMSO was used as a control. GMC101 animals were used and scoring was performed at day 1 of adulthood.

With `COc1cc(C(=O)N2CC[C@H](NC(=O)c3ccccc3OC(F)(F)F)c3c2cnn3C(C)C)cnc1OC` [ALT-007], the glucose tolerance test entry with Aged C57BL/6J mice [1] is recorded as “no difference”. Besides, the “ability to run uphill (maximum running time)” value in the assay with Aged C57BL/6J mice [2] is “did not significantly improve”. In assay [3], the “1-deoxy-SLs in the brain” value is on record as “attenuated the age-related increase in 1-deoxy-SLs”; the “total ceramides in the gastrocnemius” value is reported as “lower levels of total ceramides”; the “very long chain 1-deoxy-SLs (1-deoxyCer 22, 1-deoxyCer 24:1, N-C24:1-deoxysphinganine) in the gastrocnemius muscle” value is “attenuated”. Further, the “paralysis induced by amyloid beta aggregation” value with GMC101 worms is reported as “reduce paralysis”.
